Data set [1] in a line: Relative peptide solubility by laser nephelometry. Format: physicochemical. To be noted: filtered PBS with 1.5 % DMSO, maximum solubility in aqueous solution, two-fold serial dilution from DMSO stock, 200 μl, 1 hr at room temperature, laser nephelometry (forward scattered light, NEPHELOstar), duplicate wells, in solution if reading up to 3-fold the DMSO control. How it is done:
A two-fold serial dilution of peptide in DMSO was performed, and added in duplicate to 96-well microplates. Filtered PBS was added to give a total volume of 200 μl and a final DMSO concentration of 1.5 % in all wells. The plates were incubated at room temperature for 1 hr and the relative solubility of peptides was established by measuring forward scattered light using a NEPHELOstar laser-based microplate nephelometer (BMG LABTECH). Wells containing PBS and 1.5 % DMSO only were used as blanks. Data analysis was carried out using ActivityBase, and peptides giving readings up to and including 3-fold higher than the average reading for the DMSO control were considered to be in solution at the concentrations specified.

In the next data set the target is T1, HTLV-1 envelope (Human T-cell leukemia virus 1, UniProt P03381).
T1 construct: expressed in transfected cells; host or cells: HeLa
Kind of data set: Syncytium interference assay, HTLV-1 envelope-expressing HeLa effector cells. Format: cell-based. To be noted: concentrations up to 20 μM and above; result in words.

The target in the next data set is T2, BLV envelope (Bovine leukemia virus, UniProt P51519).
T2 construct: A fragment encompassing the entire BLV envelope open reading frame; expressed in transfected cells; host or cells: HeLa (co-transfected with pRSV-Rev)
Kind of data set: Syncytium interference assay, BLV envelope-expressing HeLa effector cells. It is filed as cell-based. To be noted: peptide at 20 μM; BLV envelope-expressing HeLa effectors (Figure 4B).

Data set [2] relates to virally expressed BLV envelope (BLV-infected FLK cells). As to conditions: chronically BLV infected FLK effector cells + HeLa target cells; result in words (Figure 3C).
Method: (§1) Briefly, HeLa cells for use as effector cells were transfected with the envelope expression vector pHTE-1 or with equal amounts of pCMV-BLVenv-RRE and pRSV-Rev using the Genejuice™ transfection reagent (Novagen) in accordance with the manufacturer's instructions. 24 h later, 3 × 10^5 effector cells were added to 7 × 10^5 untransfected HeLa target cells in six-well dishes (Nunc). Where appropriate, the co-culture was incubated in the presence of peptides at the concentrations specified. To assess the ability of the peptides to inhibit fusion induced by virally expressed BLV envelope, 2 × 10^5 BLV-infected FLK cells were used as effectors and added to 8 × 10^5 uninfected HeLa cells. After incubation at 37°C for 16 h, cells were washed twice with PBS and fixed in PBS + 3% paraformaldehyde. Assays were performed in triplicate and the number of syncytia (defined as multinucleated cells with 4 or more nuclei) from 10 low-power fields (LPF) per replicate was scored by light microscopy; some assays were stained using Giemsa. A syncytium formation value of 100% is defined as the number of syncytia formed in the absence of peptide but in the presence of 1.5% DMSO.

Where a SMILES comes first, the peptide text is derived from it.

The record followed here is paper PMC2533354, “Highly specific inhibition of leukaemia virus membrane fusion by interaction of peptide antagonists with a conserved region of the coiled coil of envelope” (Retrovirology, 2008).

By solubility (kinetic) is commonly meant solubility judged after dilution from a stock solution rather than from solid.

T1 sequence (P03381 313-488): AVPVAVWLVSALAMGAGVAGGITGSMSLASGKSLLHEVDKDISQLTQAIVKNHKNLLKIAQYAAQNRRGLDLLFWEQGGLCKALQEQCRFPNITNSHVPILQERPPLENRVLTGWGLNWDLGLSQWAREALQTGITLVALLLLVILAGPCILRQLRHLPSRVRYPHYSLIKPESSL
T2 sequence (P51519 302-515): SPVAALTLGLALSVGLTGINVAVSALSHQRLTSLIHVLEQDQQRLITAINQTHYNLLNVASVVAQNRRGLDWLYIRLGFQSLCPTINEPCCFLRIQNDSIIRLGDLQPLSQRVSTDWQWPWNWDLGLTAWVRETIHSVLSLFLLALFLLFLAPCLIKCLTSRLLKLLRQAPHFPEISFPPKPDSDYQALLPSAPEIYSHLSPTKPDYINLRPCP
Method for HTLV-1 envelope: as §1

With `CC[C@H](C)[C@H](NC(=O)[C@H](CCCNC(=N)N)NC(=O)[C@H](CC(C)C)NC(=O)[C@H](Cc1ccccc1)NC(=O)[C@H](CS)NC(=O)[C@H](CS)NC(C)=O)C(=O)N[C@@H](CCC(N)=O)C(=O)N[C@@H](CC(N)=O)C(=O)N[C@@H](CC(=O)O)C(=O)N[C@@H](CO)C(=O)N[C@H](C(=O)N[C@H](C(=O)N[C@@H](CCCNC(=N)N)C(=O)N[C@@H](CC(C)C)C(=O)NCC(=O)N[C@@H](CC(=O)O)C(=O)N[C@@H](CC(C)C)C(=O)N[C@@H](CCC(N)=O)C(=O)N1CCC[C@H]1C(=O)N[C@@H](CC(C)C)C(=O)N[C@@H](CO)C(=O)N[C@@H](CCC(N)=O)C(=O)N[C@@H](CCCNC(=N)N)C(=O)N[C@H](C(=O)N[C@@H](CO)C(=O)N[C@H](C(=O)N[C@@H](CC(=O)O)C(=O)N[C@@H](Cc1c[nH]c2ccccc12)C(=O)N[C@@H](CCC(N)=O)C(N)=O)[C@@H](C)O)C(C)C)[C@@H](C)CC)[C@@H](C)CC` [P^BLV-391] (Ac-CCFLRIQNDSIIRLGDLQPLSQRVSTDWQ-NH2), in data set [1], the solubility (kinetic) at 1 h is above 90 µM. On HTLV-1 envelope, the “Inhibition of membrane fusion induced by HTLV-1 envelope” value is “failed to inhibit”. Besides, the “Block of syncytium formation” value on BLV envelope is reported as above 95%. Further, the “Inhibition of membrane fusion induced by virally expressed BLV envelope” value in data set [2] is recorded as “robustly antagonized”.
